Experimental data taken from patent US10597388B2, “Pyridazinone herbicides” (FMC CORPORATION, priority 2014, dated 2020).

Legend:
Assay in all cases: Test C greenhouse herbicide test, pre- and postemergence
Type in all cases: in vivo
[1] = system: barnyardgrass (Echinochloa crus-galli)
How it was run: (§1)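 Greenhouse pots; pre-em on seeded loam:sand blend, post-em on 2–18 cm plants (1–4 leaf) in sphagnum peat/vermiculite medium. Formulation: non-phytotoxic solvent + surfactant. Read-out: visual % control (0–100) vs controls at 13–15 d.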

[2] = system: blackgrass (Alopecurus myosuroides)
How it was run: as §1

[3] = system: corn (Zea mays)
How it was run: as §1

[4] = system: crabgrass, large (large crabgrass, Digitaria sanguinalis)
How it was run: as §1

[5] = system: foxtail, giant (giant foxtail, Setaria faberii)
How it was run: as §1

[6] = system: galium (catchweed bedstraw, Galium aparine)
How it was run: as §1

[7] = system: lambsquarters (Chenopodium album)
How it was run: as §1

[8] = system: nutsedge, yellow (yellow nutsedge, Cyperus esculentus)
How it was run: as §1

[9] = system: oilseed rape (Brassica napus)
How it was run: as §1

[10] = system: pigweed (Amaranthus retroflexus)
How it was run: as §1

[11] = system: ragweed (common ragweed, Ambrosia elatior)
How it was run: as §1

[12] = system: ryegrass, Italian (Italian ryegrass, Lolium multiflorum)
How it was run: as §1

[13] = system: soybean (Glycine max)
How it was run: as §1

[14] = system: velvetleaf (Abutilon theophrasti)
How it was run: as §1

[15] = system: wheat (winter wheat, Triticum aestivum)
How it was run: as §1

[16] = Postemergence, 31 g ai/ha, scale 0 to 100 (0 no effect, 100 complete control)
[17] = Postemergence, 125 g ai/ha, scale 0 to 100, 0 is no effect, 100 is complete control
[18] = Postemergence, 250 g ai/ha, scale 0 to 100, 0 no effect, 100 complete control, 13 to 15 d
[19] = Preemergence, 31 g ai/ha, scale 0 to 100, 0 is no effect, 100 is complete control
[20] = Preemergence, 62 g ai/ha, scale 0 to 100, 0 is no effect, 100 is complete control
[21] = Preemergence, 125 g ai/ha, scale 0 to 100, 0 is no effect, 100 is complete control
[22] = Preemergence, 250 g ai/ha, scale 0 to 100, 0 no effect, 100 complete control
[23] = postemergence, 62 g ai/ha, scale 0 to 100, 0 no effect, 100 complete control

Q: For `Cc1ccc2ccccc2c1-c1c(O)c(C(F)(F)F)nn(C)c1=O` [Compound 102], which “Plant response rating, Barnyardgrass” value [1, 16] is on record?
A: 20

Q: What about the “Plant response rating, Barnyardgrass” value [1, 17] of the same compound?
A: 35

Q: And the “Plant response rating, Barnyardgrass” value [1, 18]?
A: 40

Q: And the “Plant response rating, Barnyardgrass” value [1, 19]?
A: 5

Q: And the “Plant response rating, Barnyardgrass” value [1, 20]?
A: 10

Q: And the “Plant response rating, Barnyardgrass” value [1, 21]?
A: 30

Q: What about the “Barnyardgrass plant response rating” value [1, 22] of the same compound?
A: 85

Q: And the “Barnyardgrass plant response rating” value [1, 23]?
A: 20

Q: What about the “Plant response rating, Blackgrass” value [2, 16] of the same compound?
A: 0

Q: And the “Plant response rating, Blackgrass” value [2, 17]?
A: 5

Q: What about the “Plant response rating, Blackgrass” value [2, 18] of the same compound?
A: 10

Q: And the “Plant response rating, Blackgrass” value [2, 19]?
A: 0

Q: And the “Plant response rating, Blackgrass” value [2, 20]?
A: 50

Q: And the “Plant response rating, Blackgrass” value [2, 21]?
A: 45

Q: And the “Blackgrass plant response rating” value [2, 22]?
A: 70

Q: And the “Blackgrass plant response rating” value [2, 23]?
A: 5

Q: What about the “Plant response rating, Corn” value [3, 16] of the same compound?
A: 0

Q: What about the “Plant response rating, Corn” value [3, 17] of the same compound?
A: 10

Q: What about the “Plant response rating, Corn” value [3, 18] of the same compound?
A: 10

Q: What about the “Plant response rating, Corn” value [3, 19] of the same compound?
A: 5

Q: And the “Plant response rating, Corn” value [3, 20]?
A: 10

Q: And the “Plant response rating, Corn” value [3, 21]?
A: 20

Q: And the “Corn plant response rating” value [3, 22]?
A: 30

Q: And the “Corn plant response rating” value [3, 23]?
A: 0

Q: And the “Plant response rating, Crabgrass, Large” value [4, 16]?
A: 5

Q: And the “Plant response rating, Crabgrass, Large” value [4, 17]?
A: 20

Q: And the “Plant response rating, Crabgrass, Large” value [4, 18]?
A: 15

Q: What about the “Plant response rating, Crabgrass, Large” value [4, 19] of the same compound?
A: 0

Q: What about the “Plant response rating, Crabgrass, Large” value [4, 20] of the same compound?
A: 5

Q: What about the “Plant response rating, Crabgrass, Large” value [4, 21] of the same compound?
A: 30

Q: What about the “Crabgrass, Large plant response rating” value [4, 22] of the same compound?
A: 55

Q: What about the “Crabgrass, Large plant response rating” value [4, 23] of the same compound?
A: 10

Q: And the “Plant response rating, Foxtail, Giant” value [5, 16]?
A: 20

Q: And the “Plant response rating, Foxtail, Giant” value [5, 17]?
A: 60

Q: And the “Plant response rating, Foxtail, Giant” value [5, 18]?
A: 75

Q: What about the “Plant response rating, Foxtail, Giant” value [5, 19] of the same compound?
A: 30

Q: And the “Plant response rating, Foxtail, Giant” value [5, 20]?
A: 75

Q: And the “Plant response rating, Foxtail, Giant” value [5, 21]?
A: 85

Q: And the “Foxtail, Giant plant response rating” value [5, 22]?
A: 90

Q: And the “Plant response rating, Galium” value [6, 16]?
A: 90

Q: What about the “Plant response rating, Galium” value [6, 17] of the same compound?
A: 95

Q: And the “Plant response rating, Galium” value [6, 18]?
A: 95

Q: What about the “Plant response rating, Galium” value [6, 21] of the same compound?
A: 95

Q: What about the “Galium plant response rating” value [6, 22] of the same compound?
A: 95

Q: What about the “Plant response rating, Lambsquarters” value [7, 16] of the same compound?
A: 75

Q: What about the “Plant response rating, Lambsquarters” value [7, 17] of the same compound?
A: 70

Q: And the “Plant response rating, Lambsquarters” value [7, 18]?
A: 100

Q: What about the “Plant response rating, Lambsquarters” value [7, 19] of the same compound?
A: 70

Q: And the “Plant response rating, Lambsquarters” value [7, 20]?
A: 85

Q: What about the “Plant response rating, Lambsquarters” value [7, 21] of the same compound?
A: 85

Q: And the “Lambsquarters plant response rating” value [7, 22]?
A: 100

Q: What about the “Plant response rating, Nutsedge, Yellow” value [8, 16] of the same compound?
A: 20

Q: What about the “Plant response rating, Nutsedge, Yellow” value [8, 17] of the same compound?
A: 60

Q: What about the “Plant response rating, Nutsedge, Yellow” value [8, 18] of the same compound?
A: 75

Q: And the “Plant response rating, Nutsedge, Yellow” value [8, 19]?
A: 15

Q: And the “Plant response rating, Nutsedge, Yellow” value [8, 20]?
A: 70

Q: And the “Plant response rating, Nutsedge, Yellow” value [8, 21]?
A: 75

Q: What about the “Nutsedge, Yellow plant response rating” value [8, 22] of the same compound?
A: 75

Q: What about the “Plant response rating, Oilseed Rape” value [9, 16] of the same compound?
A: 0

Q: And the “Plant response rating, Oilseed Rape” value [9, 17]?
A: 5

Q: What about the “Plant response rating, Oilseed Rape” value [9, 18] of the same compound?
A: 30

Q: What about the “Plant response rating, Oilseed Rape” value [9, 19] of the same compound?
A: 0

Q: And the “Plant response rating, Oilseed Rape” value [9, 20]?
A: 10

Q: And the “Plant response rating, Oilseed Rape” value [9, 21]?
A: 10

Q: And the “Oilseed Rape plant response rating” value [9, 22]?
A: 35

Q: And the “Plant response rating, Pigweed” value [10, 16]?
A: 75

Q: What about the “Plant response rating, Pigweed” value [10, 17] of the same compound?
A: 95

Q: What about the “Plant response rating, Pigweed” value [10, 18] of the same compound?
A: 100

Q: What about the “Plant response rating, Pigweed” value [10, 19] of the same compound?
A: 75

Q: And the “Plant response rating, Pigweed” value [10, 20]?
A: 85

Q: And the “Plant response rating, Pigweed” value [10, 21]?
A: 98

Q: What about the “Pigweed plant response rating” value [10, 22] of the same compound?
A: 100

Q: And the “Plant response rating, Ragweed” value [11, 16]?
A: 95

Q: And the “Plant response rating, Ragweed” value [11, 17]?
A: 100

Q: What about the “Plant response rating, Ragweed” value [11, 18] of the same compound?
A: 100

Q: What about the “Plant response rating, Ragweed” value [11, 19] of the same compound?
A: 70

Q: And the “Plant response rating, Ragweed” value [11, 20]?
A: 75

Q: What about the “Plant response rating, Ragweed” value [11, 21] of the same compound?
A: 90

Q: What about the “Ragweed plant response rating” value [11, 22] of the same compound?
A: 100

Q: What about the “Plant response rating, Ryegrass, Italian” value [12, 16] of the same compound?
A: 0

Q: And the “Plant response rating, Ryegrass, Italian” value [12, 17]?
A: 25

Q: And the “Plant response rating, Ryegrass, Italian” value [12, 18]?
A: 30

Q: And the “Plant response rating, Ryegrass, Italian” value [12, 19]?
A: 15

Q: And the “Plant response rating, Ryegrass, Italian” value [12, 20]?
A: 25

Q: What about the “Plant response rating, Ryegrass, Italian” value [12, 21] of the same compound?
A: 50

Q: What about the “Ryegrass, Italian plant response rating” value [12, 22] of the same compound?
A: 70

Q: And the “Plant response rating, Soybean” value [13, 16]?
A: 0

Q: And the “Plant response rating, Soybean” value [13, 17]?
A: 10

Q: What about the “Plant response rating, Soybean” value [13, 18] of the same compound?
A: 10

Q: What about the “Plant response rating, Soybean” value [13, 19] of the same compound?
A: 0

Q: And the “Plant response rating, Soybean” value [13, 20]?
A: 5

Q: And the “Plant response rating, Soybean” value [13, 21]?
A: 5

Q: And the “Soybean plant response rating” value [13, 22]?
A: 5

Q: What about the “Plant response rating, Velvetleaf” value [14, 16] of the same compound?
A: 30

Q: What about the “Plant response rating, Velvetleaf” value [14, 17] of the same compound?
A: 100

Q: And the “Plant response rating, Velvetleaf” value [14, 18]?
A: 100

Q: And the “Plant response rating, Velvetleaf” value [14, 19]?
A: 65

Q: And the “Plant response rating, Velvetleaf” value [14, 20]?
A: 85

Q: And the “Plant response rating, Velvetleaf” value [14, 21]?
A: 85

Q: And the “Velvetleaf plant response rating” value [14, 22]?
A: 100

Q: What about the “Plant response rating, Wheat” value [15, 16] of the same compound?
A: 0

Q: And the “Plant response rating, Wheat” value [15, 17]?
A: 5

Q: What about the “Plant response rating, Wheat” value [15, 18] of the same compound?
A: 5

Q: What about the “Plant response rating, Wheat” value [15, 19] of the same compound?
A: 0

Q: What about the “Plant response rating, Wheat” value [15, 20] of the same compound?
A: 5

Q: And the “Wheat plant response rating” value [15, 22]?
A: 25
